Experimental data published in ChEMBL document CHEMBL1201862, “PubChem BioAssay data set” (2004).
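Compound exposure: 48 hours, 5 concentrations, 96-well plates. GI50 marks 50% less growth.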 The source made the active and inactive calls. No stated cut-off is given here; in the data, active = GI50 up to about 1.1 µM and inactive = higher.

Legend:
Assay in all cases: DTP human tumour cell line panel, 48 h
A498 = tested on: A498
CCRF-CEM = tested on: CCRF-CEM
COLO 205 = tested on: COLO 205
EKVX = tested on: EKVX
HCT-15 = tested on: HCT-15
HL-60 = tested on: HL-60
NCI-H226 = tested on: NCI-H226
NCI-H23 = tested on: NCI-H23
NCI-H460 = tested on: NCI-H460
OVCAR-3 = tested on: OVCAR-3
OVCAR-4 = tested on: OVCAR-4
OVCAR-8 = tested on: OVCAR-8
RPMI-8226 = tested on: RPMI-8226
SF-539 = tested on: SF-539
SK-MEL-5 = tested on: SK-MEL-5
SN12C = tested on: SN12C
SNB-19 = tested on: SNB-19
SW-620 = tested on: SW-620
UACC-62 = tested on: UACC-62
UO-31 = tested on: UO-31

Compound	GI50 (A498)	GI50 (CCRF-CEM)	GI50 (COLO 205)	GI50 (EKVX)	GI50 (HCT-15)	GI50 (HL-60)	GI50 (NCI-H226)	GI50 (NCI-H23)	GI50 (NCI-H460)	GI50 (OVCAR-3)	GI50 (OVCAR-4)	GI50 (OVCAR-8)	GI50 (RPMI-8226)	GI50 (SF-539)	GI50 (SK-MEL-5)	GI50 (SN12C)	GI50 (SNB-19)	GI50 (SW-620)	GI50 (UACC-62)	GI50 (UO-31)
O=C1C[C@@H](C(=O)OCc2ccccc2)NC(=O)C[C@@H](C(=O)OCc2ccccc2)NC(=O)C[C@@H](C(=O)OCc2ccccc2)N1	27.5 µM (inactive)	0.0675 µM (active)	> 100 µM (inactive)	> 100 µM (inactive)	> 100 µM	0.659 µM (active)	> 100 µM (inactive)	47 µM (inactive)	> 100 µM (inactive)	> 100 µM (inactive)	> 100 µM (inactive)	> 100 µM (inactive)	38.8 µM (inactive)	18.5 µM (inactive)	> 100 µM (inactive)	> 100 µM (inactive)	45.5 µM (inactive)	> 100 µM (inactive)	64.7 µM (inactive)	> 100 µM (inactive)
CN1C[C@H]2[C@@H](C1=O)[C@H](c1ccccc1)ON2C	–	> 100 µM (inactive)	> 100 µM (inactive)	–	> 100 µM	> 10 µM (inactive)	> 100 µM (inactive)	> 100 µM (inactive)	> 100 µM (inactive)	> 100 µM (inactive)	> 100 µM (inactive)	> 100 µM (inactive)	> 100 µM (inactive)	–	> 100 µM (inactive)	> 100 µM (inactive)	> 100 µM (inactive)	> 100 µM (inactive)	–	> 100 µM (inactive)
COc1ccc(-c2nnc3c4ccccc4sn23)cc1	–	7.23 µM (inactive)	42.4 µM (inactive)	50.7 µM (inactive)	6.28 µM	15.9 µM (inactive)	–	13.3 µM (inactive)	4.58 µM (inactive)	17.1 µM (inactive)	47 µM (inactive)	32.5 µM (inactive)	19.1 µM (inactive)	32.7 µM (inactive)	34.4 µM (inactive)	17.8 µM (inactive)	29.9 µM (inactive)	49 µM (inactive)	35.4 µM (inactive)	14.3 µM (inactive)
Brc1ccc(C2CC(c3cccc4ccccc34)=Nc3ccccc3S2)cc1 (stereo not drawn)	> 100 µM (inactive)	29 µM (inactive)	> 100 µM (inactive)	37.1 µM (inactive)	35.3 µM	26.4 µM (inactive)	> 100 µM (inactive)	86.5 µM (inactive)	> 100 µM (inactive)	–	44.6 µM (inactive)	> 100 µM (inactive)	10.9 µM (inactive)	> 100 µM (inactive)	> 100 µM (inactive)	> 100 µM (inactive)	> 100 µM (inactive)	16.7 µM (inactive)	71.9 µM (inactive)	54.3 µM (inactive)
O=C(Nc1ccc(C2=NCCN2)cc1)c1cncc(C(=O)Nc2ccc(C3=NCCN3)cc2)c1	> 100 µM (inactive)	> 100 µM (inactive)	> 100 µM (inactive)	> 100 µM (inactive)	> 100 µM	> 100 µM (inactive)	> 94.6 µM (inactive)	> 100 µM (inactive)	> 100 µM (inactive)	> 100 µM (inactive)	> 100 µM (inactive)	> 100 µM (inactive)	> 100 µM (inactive)	> 100 µM (inactive)	> 100 µM (inactive)	> 100 µM (inactive)	> 100 µM (inactive)	> 100 µM (inactive)	> 100 µM (inactive)	> 100 µM (inactive)
O=C(O)/C=C/c1c[nH]cn1	> 500 µM (inactive)	–	> 500 µM (inactive)	> 500 µM (inactive)	–	–	> 500 µM (inactive)	> 500 µM (inactive)	> 500 µM (inactive)	> 500 µM (inactive)	> 500 µM (inactive)	> 500 µM (inactive)	> 500 µM (inactive)	> 500 µM (inactive)	> 232 µM (inactive)	> 500 µM (inactive)	> 500 µM (inactive)	> 500 µM (inactive)	> 500 µM (inactive)	> 500 µM (inactive)
CCCCCCCCC[C@@H]1C[C@H](O)[C@H](Cc2ccccc2)N1C(=O)OC(C)(C)C	19.5 µM (inactive)	20.2 µM (inactive)	17 µM (inactive)	14.4 µM (inactive)	18.6 µM	22.9 µM (inactive)	–	15.6 µM (inactive)	–	20.3 µM (inactive)	17.7 µM (inactive)	17.5 µM (inactive)	24.1 µM (inactive)	20.9 µM (inactive)	19.1 µM (inactive)	16.7 µM (inactive)	18.6 µM (inactive)	20.1 µM (inactive)	17 µM (inactive)	14.3 µM (inactive)
CC1=C2C(=C[C@H]3[C@]4(C)CCCC(C)(C)[C@H]4CC[C@]34O[C@H]24)OC1=O	> 100 µM (inactive)	–	> 100 µM (inactive)	> 100 µM (inactive)	> 100 µM	–	> 100 µM (inactive)	> 100 µM (inactive)	> 100 µM (inactive)	–	> 100 µM (inactive)	–	> 100 µM (inactive)	–	> 100 µM (inactive)	> 100 µM (inactive)	> 100 µM (inactive)	> 100 µM (inactive)	> 100 µM (inactive)	> 100 µM (inactive)
